Experimental data from US20250214986A1, “P2X3 INHIBITOR COMPOUND, SALT THEREOF, POLYMORPH THEREOF AND USE THEREOF” (HUMANWELL HEATHCARE (GROUP) CO., LTD., priority 2022, published 2025).
Converted amounts (≈) assume the structure as drawn. Each block holds one molecule with its values, some of them ahead of it.

Columns and labels:
[1] = test system: citric acid/ATP-stimulated cough model; test: Cough efficacy assay of ATP/citric acid in guinea pigs; format: in vivo
Procedure: (§1) Before enrollment, the animals were acclimatized for 3-7 days. Once their body weight reached the standard (300-400 g), they were numbered and randomly grouped. 0.25-24 h before the start of the cough assessment, the compound or excipient was administered to the guinea pigs via intranasal instillation. The dose range for the administration of the test substance was 0.17-1.5 mg/kg. During the cough assessment, after the animals were acclimated in a whole-body plethysmography box, they were given ATP nebulization, and after a few minutes, they were given citric acid nebulization. The number of coughs and the cough latency of the animals were recorded within 15 min from the start of the citric acid nebulization. The one-way ANOVA method was used to analyze and compare the data of the groups. Statistical analysis results with p<0.05 were considered to indicate significant differences. Pairwise comparisons were performed using the t-test method to assess differences.

taste of SD rats = test: Taste assay in rats (water vs. aqueous quinine intake); format: in vivo; conditions: 30 mg/kg, i.p., 0.3 mM aqueous quinine, 15 min intake half an hour after administration
Procedure: After 3 days of overnight water-deprivation training, SD rats were subjected to administration with the compound. Half an hour after administration, each animal was given one bottle of water and one bottle of 0.3 mM aqueous quinine solution. The water bottles were removed after 15 min, and the intake of water and the intake of 0.3 mM aqueous quinine solution by the rats were measured separately. The effect of the compound on the taste of SD rats was assessed based on the difference between the water intake and the aqueous quinine solution intake (FIG. 41).

[2] = test system: citric acid/histamine-stimulated cough model; test: Cough efficacy assay of histamine/citric acid in guinea pigs; format: in vivo
Procedure: as §1, with “given histamine” for “given ATP”, “nebulization, followed by” for “nebulization, and after a few minutes, they were given”, “within 22” for “within 15”, “the histamine nebulization until the end of the observation period. For the statistics of experimental data, the” for “the citric acid nebulization. The”

[3] = Pharmacokinetic assay in mice; format: in vivo, male ICR mice
Procedure: Pharmacokinetic assay in mice was performed, wherein the mice used were male ICR mice weighing 20-25 g and fasted overnight. 3 mice were taken and given the compound by oral intragastric administration at 10 mg/kg, and blood was collected before administration and at 15 min, 30 min, 1 h, 2 h, 4 h, 8 h, and 24 h after administration. The blood samples were centrifuged at 6800 g at 2-8° C. for 6 min, and plasma was collected and stored at −80° C. […] The mixture was vortexed for 1 min and then centrifuged at 13000 rpm at 4° C. for 10 min. The supernatant was taken, and 3 times its amount of water was added for mixing. A proper amount of the resulting mixture was taken for LC-MS/MS analysis. The major pharmacokinetic parameters were analyzed using a non-compartmental model in the WinNonlin 7.0 software.

[4] = Hygroscopicity by dynamic vapor sorption (DVS); format: physicochemical
Procedure: Dynamic vapor sorption (DVS) curves were acquired on a DVS IntrInsic from Surface Measurement Systems (SMS). The relative humidity at 25° C. was corrected with the deliquescence points of LiCl, Mg(NO3)2, and KCl.
Starting at 0% RH, the test acquired the percentage changes in mass of the samples when the humidity changed (0% RH to 95% RH to 0% RH) at a constant temperature of 25° C.

[5] = Competitive suspension tests of free base crystalline forms A/B; format: physicochemical; conditions: room temperature and 50° C.
Procedure: In order to confirm the thermodynamic transformation relationship between the anhydrous free base crystalline forms A and B under different temperature conditions, competitive suspension tests in n-heptane and toluene at room temperature and 50° C. were set up.

[6] = Solid state stability (XRPD and HPLC); format: physicochemical
Procedure: In the test, the purity, dynamic solubility and stability were tested using an Agilent 1260 high-performance liquid chromatograph, the molar ratio of salt-forming ions was tested using ion chromatography, and the analytical conditions are shown in Tables A-4 and A-5 below. [table]

[7] = Dynamic solubility experiment at 37° C.; format: physicochemical
Procedure: In the test, the purity, dynamic solubility and stability were tested using an Agilent 1260 high-performance liquid chromatograph, the molar ratio of salt-forming ions was tested using ion chromatography, and the analytical conditions are shown in Tables A-4 and A-5 below.
Solids at a feeding concentration of 10 mg/mL (calculated based on free base) were rotationally mixed with corresponding vehicles at 37° C. […] After sampling at each time point, the samples were centrifuged (at 10000 rpm) and filtered (through a 0.45 μm PTFE filter head). The HPLC concentrations and pH values of the filtrates were determined.
100.2 mg of NaCl and 50.3 mg of Triton X-100 were weighed into a 50 mL volumetric flask and then completely dissolved by addition of purified water. 816 μL of 1 M hydrochloric acid was added, and the pH was adjusted to 1.8 with 1 M hydrochloric acid or 1 M NaOH solution. The mixed solution was brought to the volume by addition of purified water.
170.5 mg of anhydrous NaH2PO4, 22.2 mg of NaOH, and 310.9 mg of NaCl were weighed into a 50 mL volumetric flask and then completely dissolved by addition of purified water. The pH was adjusted to 6.5 with 1 M hydrochloric acid or 1 M NaOH solution. The mixed solution was brought to the volume by addition of purified water. Subsequently, 55.1 mg of SIF powder was weighed into a 25 mL volumetric flask and completely dissolved with the above solution, and the mixed solution was brought to the volume.
0.21 mL of glacial acetic acid, 101.6 mg of NaOH, and 295.4 mg of NaCl were added into a 25 mL volumetric flask and then completely dissolved by addition of about 20 mL of purified water. The pH was adjusted to 5.0 with 1 M hydrochloric acid or 1 M NaOH solution. The mixed solution was brought to the volume by addition of purified water, and then 280.8 mg of SIF powder was weighed into the flask and completely dissolved.

[8] = ATP/citric acid nebulization, intranasal instillation
[9] = citric acid/ATP-stimulated cough model
[10] = citric acid/histamine-stimulated cough model
[11] = histamine/citric acid nebulization, intranasal instillation
[12] = male, ICR, mouse, plasma, mice, oral intragastric administration, 10 mg/kg
[13] = 25° C./60% RH/uncovered, 1 month
[14] = 25° C./60% RH/uncovered, 1 week
[15] = 40° C./75% RH/uncovered, 1 month
[16] = 40° C./75% RH/uncovered, 1 week

Water/aqueous quinine solution intake ratio (taste of SD rats): 29.4
AUC(0-t) [3, 12]: 15000 ng·h/mL
Cmax [3, 12]: 3380 ng/mL
Tmax [3, 12]: 0.5 h
half-life ([3]; male, ICR, mouse, plasma, mice, oral intragastric administration, 10 mg/kg, read-out: T½ (converted)): 2.89 h
Compound: Cc1cnc(-c2cc(O[C@@H](C)[C@@H](C)O)cc(C(=O)N[C@H](C)c3cnc(C(F)(F)F)nc3)c2F)s1 [Compound of formula I, 2-fluoro-5-(((2S,3R)-3-hydroxybutan-2-yl)oxy)-3-(5-methylthiazol-2-yl)-N—((R)-1-(2-(trifluoromethyl)pyrimidin-5-yl)ethyl)benzamide]
Cough inhibition rate vs. vehicle (%) [1, 8]: 68.2%
Mean number of coughs within 15 min [1, 8]: 6.3
cough latency [1, 9]: prolonged the cough latency
number of coughs compared to control compound 1 [1, 9]: significantly reduced the number of coughs
cough latency [2, 10]: prolonged the cough latency
number of coughs compared to control compound 1 [2, 10]: significantly reduced the number of coughs
Cough inhibition rate vs. vehicle (%) [2, 11]: 66.5%
Mean number of coughs within 15 min [2, 11]: 8.9
pharmacokinetic properties compared to the control compounds 1 and 2 ([3]; mouse model): certain improvements in their pharmacokinetic properties

crystalline form after DVS test ([4]; 0% RH to 95% RH to 0% RH, 25° C.): remained unchanged
vapor sorption ([4]; 25° C./80% RH): about 0.91%
hygroscopicity ([4]; DVS, 25° C./80% RH): slight hygroscopicity
HPLC Purity (area %) [6, 13]: 99.33 area %
HPLC purity Relative to starting (%) [6, 13]: 99.96%
HPLC Purity (area %) [6, 14]: 99.38 area %
HPLC purity Relative to starting (%) [6, 14]: 100.01%
HPLC Purity (area %) [6, 15]: 99.43 area %
HPLC purity Relative to starting (%) [6, 15]: 100.06%
HPLC Purity (area %) [6, 16]: 99.51 area %
HPLC purity Relative to starting (%) [6, 16]: 100.14%
change of HPLC purity after placement under the corresponding conditions ([6]; 60° C. sealed 1 day, 25° C./60% RH and 40° C./75% RH uncovered 1 week/1 month): no significant change
HPLC Purity (area %) ([6]; 60° C./sealed, 1 day): 99.44 area %
HPLC purity Relative to starting (%) ([6]; 60° C./sealed, 1 day): 100.07%
HPLC Purity (area %) ([6]; Starting): 99.37 area %
solubility at 4 h ([7]; FaSSIF, 37 °C, pH 6.5, fassif, thermodynamic from solid, FaSSIF, 4 h, read-out: S: solubility): 8 µg/mL (≈ 16 µM)
Crystalline form change ([7]; FaSSIF, 1 h): No
S: solubility ([7]; FaSSIF, 1 h): 10 µg/mL
pH of filtrate ([7]; FaSSIF, 1 h): 6.5
Crystalline form change ([7]; FaSSIF, 4 h): No
pH of filtrate ([7]; FaSSIF, 4 h): 6.5
Crystalline form change ([7]; FaSSIF, 24 h): No
S: solubility ([7]; FaSSIF, 24 h): 9 µg/mL
pH of filtrate ([7]; FaSSIF, 24 h): 6.5
solubility at 24 h ([7]; FeSSIF, 37 °C, pH 5, fessif, thermodynamic from solid, FeSSIF, 24 h, read-out: S: solubility): 25 µg/mL (≈ 50.2 µM)
Crystalline form change ([7]; FeSSIF, 1 h): No
S: solubility ([7]; FeSSIF, 1 h): 23 µg/mL
pH of filtrate ([7]; FeSSIF, 1 h): 5.0
Crystalline form change ([7]; FeSSIF, 4 h): No
S: solubility ([7]; FeSSIF, 4 h): 23 µg/mL
pH of filtrate ([7]; FeSSIF, 4 h): 5.0
Crystalline form change ([7]; FeSSIF, 24 h): No
pH of filtrate ([7]; FeSSIF, 24 h): 5.0
Crystalline form change ([7]; H2O, 1 h): No
S: solubility ([7]; H2O, 1 h): 3 µg/mL
pH of filtrate ([7]; H2O, 1 h): 8.8
Crystalline form change ([7]; H2O, 4 h): No
S: solubility ([7]; H2O, 4 h): 3 µg/mL
pH of filtrate ([7]; H2O, 4 h): 8.9
Crystalline form change ([7]; H2O, 24 h): No
S: solubility ([7]; H2O, 24 h): 3 µg/mL
pH of filtrate ([7]; H2O, 24 h): 9.0
Crystalline form change ([7]; SGF, 1 h): No
S: solubility ([7]; SGF, 1 h): 13 µg/mL
pH of filtrate ([7]; SGF, 1 h): 1.8
Crystalline form change ([7]; SGF, 4 h): No
S: solubility ([7]; SGF, 4 h): 13 µg/mL
pH of filtrate ([7]; SGF, 4 h): 1.8
Crystalline form change ([7]; SGF, 24 h): No
S: solubility ([7]; SGF, 24 h): 12 µg/mL
pH of filtrate ([7]; SGF, 24 h): 1.8
Compound: Cc1cnc(-c2cc(O[C@@H](C)[C@@H](C)O)cc(C(=O)N[C@H](C)c3cnc(C(F)(F)F)nc3)c2F)s1 [Free base crystalline form A, 2-fluoro-5-(((2S,3R)-3-hydroxybutan-2-yl)oxy)-3-(5-methylthiazol-2-yl)-N—((R)-1-(2-(trifluoromethyl)pyrimidin-5-yl)ethyl)benzamide]
thermodynamic stability of the crystalline form [5]: thermodynamically stable crystalline form
crystalline form changes in the dynamic solubility tests ([7]; H2O, SGF, FaSSIF, FeSSIF): did not undergo any crystalline form changes
